Measured values: patent publication US20240327356A1, “PYRIMIDINE BASED RAS MODULATORS AND USES THEREOF” (QUANTA THERAPEUTICS, INC., priority 2021, published 2024)

Assays:
[1] = biological target: KRAS^G12D-FMe.RAF1^RBDCRD complex (Homo sapiens, UniProt P01116, G12D); assay: SHG assay: binding to bilayer-tethered KRAS G12D/RAF1 complex; details: GppNHp-loaded complex on PS bilayer; compound 0.027-40 μM, monitored over 60 min
Procedure: Compounds suspected to carry intrinsic SHG activity were tested in the presence of an unlabeled KRAS^G12D-FMe.RAF1^RBDCRD complex to monitor binding. PS bilayer was prepared from PS-enriched small unilamellar vesicles (SUVs) purchased from Biodesy, Inc. The concentrated SUVs were diluted in TBS buffer containing 5 mM CaCl2 and incubated on a glass-bottom 384-well Biodesy Delta™ assay plate to allow bilayer formation. Equimolar amounts of GppNHp-loaded KRAS^G12D-FMe and RAF1^RBDCRD were mixed and incubated together on PS bilayer overnight at 4° C. The following day, untethered protein was removed by washing with assay buffer (20 mM Hepes, pH 7.4, […], 1 mM TCEP, 5 μM GppNHp). The SHG signal produced by bilayer-tethered complex was ready using the Biodesy Delta™ platform where each well was pulsed with an 800 nm laser and the resulting second harmonic signal intensity at 400 nm was collected. Compounds were diluted into the same assay buffer and applied to the complex at a final concentration range spanning 0.027 μM-40 μM and the SHG intensity of each well was monitored at 5 minute intervals over a 60 minute time period.

[2] = test system: Phospho-ERK (Thr202/Tyr204) in MiaPaCa-2 cells; assay: pERK inhibition in MiaPaca-2 cell line (HTRF); format: cell-based; details: Homo sapiens, MIA PaCa-2, 1 hour incubation with compound
Procedure: MiaPaCa-2 cells (ATCC CRL-1420) were cultured in high glucose DMEM (Gibco 11965092) containing 10% fetal bovine serum (Gibco 1993708) and 1× Penicillin/Streptomycin, at 37° C. in a humid atmosphere of 5% CO2 in the air. Cells were plated in tissue-culture treated 96-well plates at a density of 10,000 cells/well and allowed to attach for 16 hours. The medium was then removed, and diluted compounds were added in a final concentration of 0.5% DMSO. After 1 hour of incubation, cells were lysed by the lysis buffer supplied with the Phospho-ERK (Thr202/Tyr204) cellular HTRF kit (Cisbio 64ERKPEH) and transferred to a 384-well low-volume white plate (PerkinElmer 6008280). The cell lysates were treated with the detection reagents supplied with the HTRF kit for 4 hours at ambient temperature in darkness. Two fluorescence intensities at the wavelengths (665 and 620 nm) were measured by the Envision plate reader (Perkin Elmer), and the data were processed and fitted to a 4-parameter logistic model for IC50 calculation (GraphPad Prism 9).

Row | Structure (SMILES) | EC50 [1] | IC50 [2]
1 | Cc1ccc(-c2ncc(CNC(=O)C3(N)CC3)c(N3CCC(CN)C3)n2)cc1Cl (centres unmarked) [Compound 81] | 10 to 50 µM | 1 to 10 µM
2 | N#Cc1cc(-c2ncc(CNC(=O)C3(F)CC3)c(N3CCC(CN)C3)n2)ccc1Cl (centres unmarked) [Compound 35] | 10 to 50 µM | 1 to 10 µM
3 | N#Cc1cc(-c2ncc(CNc3ccccc3)c(N3CCC(CN)C3)n2)ccc1C(F)(F)F (centres unmarked) [Compound 45, 5-[4-[3-(aminomethyl)pyrrolidin-1-yl]-5-(anilinomethyl)pyrimidin-2-yl]-2-(trifluoromethyl)benzonitrile] | 1 to 10 µM | 1 to 10 µM
4 | N[C@@H]1CN(c2nc(-c3ccc(Cl)cc3NC(=O)C3CC3)ncc2C2=CCNC2)C[C@H]1O [Compound 43] | 10 to 50 µM | 10 to 50 µM
5 | NCC1CCN(c2nc(-c3ccc(C(F)(F)F)cc3F)ncc2C2CCNC2)C1 (centres unmarked) [Compound 17, [1-[2-[2-fluoro-4-(trifluoromethyl)phenyl]-5-pyrrolidin-3-yl-pyrimidin-4-yl]pyrrolidin-3-yl]methanamine] | 1 to 10 µM | 1 to 10 µM
6 | N#CC1(C(=O)NCc2cnc(-c3ccc(Cl)c(C(F)(F)F)c3)nc2N2CCC[C@@H]2CN)CC1 [Compound 66] | 1 to 10 µM | 1 to 10 µM
7 | C=C(F)C(=O)NCc1cnc(-c2ccc(C)c(Cl)c2)nc1N1CCC(CN)C1 (centres unmarked) [Compound 76] | 1 to 10 µM | 1 to 10 µM
8 | N#CC1(C(=O)NCc2cnc(-c3ccc(Cl)c(C(F)(F)F)c3)nc2OCCCN)CC1 [Compound 74] | 1 to 10 µM | 1 to 10 µM
9 | Cc1ccc(-c2ncc(CNC(=O)C3(F)CC3)c(N3CC(CN)C3)n2)cc1Cl [Compound 101] | 10 to 50 µM | 1 to 10 µM
10 | N[C@@H]1CN(c2nc(-c3ccc(Cl)cc3NC(=O)C3(F)CC3)ncc2C2=CCNC2)C[C@H]1O [Compound 44] | 1 to 10 µM | 1 to 10 µM
11 | Cc1ccc(-c2ncc(OCC(=O)NC3CC3)c(N3CCC(CN)C3)n2)cc1Cl (centres unmarked) [Compound 126] | 1 to 10 µM | 1 to 10 µM
12 | Cc1ccc(-c2ncc(CNC(=O)C3(C#N)CC3)c(N3CCC[C@H]3CN)n2)cc1Cl [Compound 68] | 10 to 50 µM | 1 to 10 µM
13 | Cc1ccc(-c2ncc(CNC(=O)C3(C#N)CC3)c(N3CCC(F)(CN)C3)n2)cc1Cl (centres unmarked) [Compound 63] | 1 to 10 µM | 0.1 to 1 µM
14 | Cc1ccc(-c2ncc(NC(=O)C3CC3)c(N3CCC(CN)C3)n2)cc1Cl (centres unmarked) [Compound 113] | 10 to 50 µM | 1 to 10 µM

Further lines, results first:

Row | EC50 [1] | IC50 [2] | Structure (SMILES)
15 | 1 to 10 µM | 1 to 10 µM | N#CC1(C(=O)NCc2cnc(-c3ccc(Cl)c(C(F)(F)F)c3)nc2OC2CNC2)CC1 [Compound 39]
16 | 1 to 10 µM | 1 to 10 µM | N#CC1(C(=O)NCc2cnc(-c3ccc(Cl)c(C(F)(F)F)c3)nc2C2=CCC(N)CC2)CC1 (centres unmarked) [Compound 58, N-[[4-(4-aminocyclohexen-1-yl)-2-[4-chloro-3-(trifluoromethyl)phenyl]pyrimidin-5-yl]methyl]-1-cyano-cyclopropanecarboxamide]
17 | 1 to 10 µM | 1 to 10 µM | NCC1CCN(c2nc(-c3ccc(Cl)c(C(F)(F)F)c3)ncc2CNC(=O)C2(F)CC2)C1 (centres unmarked) [Compound 7]
18 | 1 to 10 µM | 1 to 10 µM | Cc1ccc(-c2ncc(CNC(=O)C3(O)CC3)c(N3CCC(CN)C3)n2)cc1Cl (centres unmarked) [Compound 96]
19 | 1 to 10 µM | 1 to 10 µM | N#CC1(C(=O)NCc2cnc(-c3ccc(C(F)(F)F)c(Cl)c3)nc2N2CCC(CN)C2)CC1 (centres unmarked) [Compound 75]
20 | 1 to 10 µM | 1 to 10 µM | NCC1CCN(c2nc(-c3ccc(Cl)c(C(F)(F)F)c3)ncc2OC2CCOC2)C1 (centres unmarked) [Compound 12]
21 | 0.1 to 1 µM | 1 to 10 µM | N[C@@H]1CN(c2nc(-c3ccc(Cl)c(C(F)(F)F)c3)ncc2C2=CCNC2)C[C@H]1O [Compound 40]
22 | 0.1 to 1 µM | 1 to 10 µM | NC[C@@H]1CCN(c2nc(-c3ccc(Cl)c(C(F)(F)F)c3)ncc2C2=CCNC2)C1 [Compound 2, [(3S)-1-[2-[4-chloro-3-(trifluoromethyl)phenyl]-5-(2,5-dihydro-1H-pyrrol-3-yl)pyrimidin-4-yl]pyrrolidin-3-yl]methanamine]
